Experimental data taken from patent publication US20080275009A1, “ORAL ADMINISTRATION OF N-(2-CHLORO-6-METHYLPHENYL)-2-[[6-[4-(2-HYDROXYETHYL)-1-PIPERAZINYL]-2-METHYL-4-PYRIMIDINYL]AMINO]-1,3-THIAZOLE-5-CARBOXAMIDE AND SALTS THEREOF” (Bristol-Myers Squibb Company, priority 2005, published 2008).

Key:
PDGF receptor = details: general statement, method or value not given; cited from earlier work
EPH receptor = details: general statement, method or value not given; cited from earlier work
[1] = aqueous solubility of Compound I as a function of pH; format: physicochemical; details: aqueous medium, pH of 2 compared with pH of 5

Structure (SMILES): Cc1nc(Nc2ncc(C(=O)Nc3c(C)cccc3Cl)s2)cc(N2CCN(CCO)CC2)n1 [Compound I, N-(2-chloro-6-methylphenyl)-2-((6-(4-(2-hydroxyethyl)-1-piperazinyl)-2-methyl-4-pyrimidinyl)amino)-1,3-thiazole-5-carboxamide]
- inhibition of PDGF receptor (PDGF receptor): potent inhibitor
- inhibition of EPH receptor (EPH receptor): potent inhibitor
- aqueous solubility [1]: higher solubility at a pH of 2 than at a pH of 5
